Results on four compounds are retold here after patent US12509465B2, “Benzoimidazole derivatives as anticancer agents” (CENTRE LEON BERARD, priority 2016, dated 2025).

The target of one data set is Myd88-ERK2 (Homo sapiens (Human), UniProt P28482). The experiment in a line: HTRF assay of MyD88-ERK2 interaction. As to conditions: GST-ERK2 50 nM, biotin-MyD88pep 50 nM; read-out: IC50* (μM) on Myd88-ERK2 in HRTF Assay. The format is binding. The text has this: (§1) [drawing 67] 2-(4-dimethylamino-phenyl)-1H-benzoimidazole-5-carboxylic acid (3-chloro-phenyl)-amide was synthesized from 2-(4-dimethylamino-phenyl)-1H-benzoimidazole-5-carboxylic acid and 3-chloro-phenylamine by following the procedure for example 1. ^1H NMR (400 MHz, DMSO-d6) δ 12.90 (s, 1H), 10.37 (s, 1H), 8.17 (s, 1H), 8.08-7.98 (m, 3H), 7.82-7.73 (m, 2H), 7.61 (d, J=8.3 Hz, 1H), 7.39 (t, J=8.1 Hz, 1H), 7.15 (ddd, J=8.0, 2.1, 0.9 Hz, 1H), 6.91-6.81 (m, 2H), 3.02 (s, 6H). MS m/z (M+H) 390.9. 2/Biological Activity 2-1/In Vitro Determination of Compound Activity by HRTF Assay Principle: In the experiment, recombinant Erk1 and Erk2, tagged with a polyhistidine stretch in their N-terminal part were used. To reproduce the interaction between ERK1/2 and Myd88, a peptide corresponding to amino acids 24-40 of Myd88 was used: biotin-Ahx-[…] with Ahx being aminohexanoic acid as a spacer (biotin-MyD88peptide). This peptide encompassed the interaction motif of Myd88 with the CD domain of ERK1/2. To perform the HTRF assay this peptide was N-terminally labelled with biotin. To detect the interaction between the peptide and Erk1 or Erk2 the following components were used: an antibody directed against the His-tag, labelled with the donor fluorophore (Europium cryptate); The streptavidine protein, labelled with the acceptor XL665 fluorophore directed against the biotin. All the components except Erk1, Erk2 and the peptide were purchased from Cisbio (Condolet, France).
Sequence of Myd88-ERK2 (P28482 whole entry): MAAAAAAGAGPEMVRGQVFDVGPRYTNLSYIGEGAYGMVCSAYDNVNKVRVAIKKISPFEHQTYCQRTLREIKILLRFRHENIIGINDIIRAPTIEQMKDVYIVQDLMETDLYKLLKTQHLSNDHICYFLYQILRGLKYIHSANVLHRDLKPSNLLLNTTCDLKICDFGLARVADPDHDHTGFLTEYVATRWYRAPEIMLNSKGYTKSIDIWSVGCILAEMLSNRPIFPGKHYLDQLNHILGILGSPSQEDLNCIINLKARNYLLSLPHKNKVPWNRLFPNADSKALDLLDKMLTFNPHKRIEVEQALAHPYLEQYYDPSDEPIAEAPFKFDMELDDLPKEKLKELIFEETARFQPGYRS
(§2) Homogeneous Time Resolved Fluorescence (HTRF) assay combines two techniques: Fluorescence Resonance Energy Transfer (FRET) and Time Resolved (TR) measurement. In TR-FRET, a transfer of fluorescence between a donor and an acceptor molecule generates a signal that can then be measured. This energy transfer is only possible when both fluorophores are close enough to each other. Therefore, this method can be used to detect protein-protein interaction.
For MyD88-ERK2 interaction the reaction medium contained: GST-ERK2 at 50 nM, biotin-MyD88pep at 50 nM, anti-GST-Cryptate antibody at 0.8 nM and XL665 labeled-Streptavidine at 12.5 nM.
(§3) Concentrations of compounds to be tested ranged from 0.1 μM to 100 μM. Stock solutions of compounds according to the invention were prepared at 10 mM in DMSO. […] The plate was incubated at room temperature for 2 hours and fluorescence was measured using a TECAN Infinite F500 Reader®.
(§4) Results are calculated as the variation of fluorescence (Delta F) between control and samples. Delta F was calculated using the following equation: [(Ratio sample-Ratio of the arithmetic mean of the control)/Ratio of the arithmetic mean of the control]×100 where ratio=(Acceptor fluorescence/Donor fluorescence)×10000. […]
(In TR-FRET formats the signal depends on donor and acceptor labels being close together.)

A further data set concerns ERK1/2. Nature of the data set: Cell-based assay, SRE luciferase reporter in HCT116 p53+/+ cells. Conditions: Homo sapiens, HCT-116, 2 hours pretreatment, 10% FCS stimulation. The text has this:
The terms “SRE promoter” refer to “Serum response elements”, which is a DNA sequence (CC(A/T)6GG) that is used upstream of reporter genes and is known to be the binding site of the SRF (Serum response factor) proteins encoded by SRF gene identified by Gene Bank number (Gene ID: 6722, NM_003131.2). To determine the activity of the compounds on ERK1/2, Human Colon Tumor (HCT116) p53+/+ cell line stably transformed to express the luciferase reporter gene under the control of the serum response element (SRE) was used. This cell line was cultured in McCoy's medium supplemented with 10% FBS, 2 mM glutamine, 1% antibiotics and 1 μM of puromycin.
HCT116 p53+/+ SRE luciferase cells were plated in 96-well flat-bottom plate at 20,000/well and incubated at 37° C. for 36 hours. The medium was discarded and replaced by 100 μl of serum free medium for 16 hours. Cells were then pretreated for 2 hours with the compounds according to the invention at various concentrations (from 0.001 μM to 80 μM). Cells were then stimulated by addition of 10% FCS and incubated at 37° C. for four additional hours and the expression of reporter gene was assessed using the One-Glo Luciferase reagent (Promega). Luminescence was quantified after 5 minutes in a TECAN infinite M200 Reader (Männedorf, Switzerland). The results are presented below at paragraph 2-5.

The next data set concerns the target Myd88-ERK1 (Homo sapiens (Human), UniProt P27361). The experiment in a line: HTRF assay of MyD88-ERK1 interaction. The format is binding. As to conditions: 6xHis-ERK1 7.5 nM, biotin-MyD88peptide 25 nM; read-out: IC50* (μM) on Myd88-ERK1 in HRTF Assay.
Description: as §1, §2
For MyD88-ERK1 interaction the reaction medium contained: 6xHis-ERK1 at 7.5 nM, biotin-MyD88peptide at 25 nM, anti-Histidine-Cryptate antibody at 1.3325 nM and XL665 labeled-Streptavidine at 3.125 nM.
as §3, §4

Another data set deals with HCT116 cells. The experiment in a line: Apoptosis assay (Caspase-Glo 3/7). As to conditions: HCT116 p53+/+ cells, 16 h treatment, DMSO treated cells as control. The format is cell-based, Human. As to the method: Cellular apoptosis was measured using the Caspase-Glo® 3/7 assay kit (Promega). To perform this study, HCT116 p53+/+ cells were seeded at a density of 7,000 cell/well in 96-half wells plate and maintained 24 h at 37° C. in McCoy's medium supplemented with 2 mM glutamine, 1% penicillin, 1% of streptomycin and 10% FBS. Cells were then treated with the compounds at various concentrations ranging from 1 μM to 100 μM depending on the compound. The DMSO concentration was normalized at 1% in each well and the cells were incubated for 16 h. Caspase 3/7 activity was monitored using caspase-Glo 3/7 kit according to the manufacturer instructions. Briefly, 50 μL of Caspase-Glo® 3/7 reagent was added in each well and the plates were gently agitated for 30 s and let at room temperature for an additional hour. Luminescence was then measured in a TECAN infinite 200 microplate reader. Results are expressed as the fold induction of caspase 3/7 activation using DMSO treated cells as control. The results are presented on FIGS. 1 to 3.

Sequence of Myd88-ERK1 (P27361 whole entry): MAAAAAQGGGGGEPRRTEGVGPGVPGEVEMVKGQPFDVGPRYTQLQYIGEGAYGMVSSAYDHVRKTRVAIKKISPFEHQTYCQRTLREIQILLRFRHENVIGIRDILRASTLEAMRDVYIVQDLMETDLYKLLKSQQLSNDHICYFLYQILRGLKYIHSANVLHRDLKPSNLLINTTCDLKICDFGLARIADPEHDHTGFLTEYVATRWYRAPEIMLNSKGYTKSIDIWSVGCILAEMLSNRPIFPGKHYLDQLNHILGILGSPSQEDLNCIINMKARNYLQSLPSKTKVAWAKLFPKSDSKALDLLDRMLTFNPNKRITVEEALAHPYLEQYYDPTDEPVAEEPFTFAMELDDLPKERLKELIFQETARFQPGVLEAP

Take `CN(C)c1ccc(-c2nc3cc(NC(=O)c4ccccc4)ccc3[nH]2)cc1` [Comp. ex., reference compound]: the IC50 on Myd88-ERK2, in the data set with ERK1/2 and on Myd88-ERK1 was over 50 µM throughout.

Consider `CN(C)c1ccc(-c2nc3cc(C(=O)Nc4ccncc4)ccc3[nH]2)cc1` [Compound 2, 2-(4-Dimethylamino-phenyl)-1H-benzoimidazole-5-carboxylic acid pyridin-4-ylamide], for which the IC50 at Myd88-ERK2 is 11.8 µM; with ERK1/2 it was 0.32 µM; on Myd88-ERK1, 8 µM. Moreover, the “induction of apoptosis (fold induction of caspase 3/7 activity)” value in the data set with HCT116 cells is recorded as “induction of apoptosis”.

In the case of `COc1ccc(NC(=O)c2ccc3[nH]c(-c4ccc(N(C)C)cc4)nc3c2)cn1` [Compound 6, 2-(4-Dimethylamino-phenyl)-1H-benzoimidazole-5-carboxylic acid (6-methoxy-pyridin-3-yl)-amide], the IC50 was 2.34 µM at Myd88-ERK2, 0.48 µM in the data set on ERK1/2 and 4.44 µM on Myd88-ERK1. Besides, the “induction of apoptosis (fold induction of caspase 3/7 activity)” value in the data set on HCT116 cells is recorded as “induction of apoptosis”.

`CCc1ccc(NC(=O)c2ccc3[nH]c(-c4ccc(N(C)C)cc4)nc3c2)cn1` [Compound 7, 2-(4-Dimethylamino-phenyl)-1H-benzoimidazole-5-carboxylic acid (6-ethylpyridin-3-yl)-amide]: the IC50 on Myd88-ERK2 was determined as 25.5 µM; in the data set with ERK1/2, 0.79 µM; at Myd88-ERK1, 6.15 µM. In addition, the “induction of apoptosis (fold induction of caspase 3/7 activity)” value in the data set with HCT116 cells was “induction of apoptosis”.

A word on the IC50: it is the concentration at which inhibition is half-maximal.
